Measured values as given in patent publication US8772321B2, “Heteroannelated anthraquinone derivatives for inhibiting cancers” (National Defense Medical Center, priority 2008, dated 2014).

Columns and labels:
Assay in all cases: NCI 60-cell one dose screen
Type in all cases: cell-based, human
OVCAR-3 = OVCAR-3 (Ovarian cancer); 10^−5M
Procedure: (§1) NSC745885 was studied as a prototype for anti-proliferative activity against human cancer cell lines in NCI Drug Screen Program (Table 1, below). NSC745885 was evaluated in the full panel of human tumor cell lines derived from nine cancer cell types (leukemia, non-small cell lung cancer, colon cancer, CNS cancer, prostate cancer, melanoma, ovarian cancer, renal cancer and breast cancer). Each subpanel uses several cell lines and dose-response curves were drawn against the decadic logarithm (log 10) of the corresponding drug concentrations for each cell line by the subpanel group. They were also evaluated in the 60 cell line panel and anticancer assay was performed in accordance with the protocol of developmental therapeutics program (one dose mean graph). Results for each compound were reported as the proliferation percentage of the treated cells with that of the untreated control cells being 100. For each of these parameters the averaged values of mean graph midpoint (MG_MID) were calculated.

KM12 = KM12 (Colon cancer); 10^−5M
Procedure: as §1

MDA-MB-231/ATCC = MDA-MB-231/ATCC (Breast cancer); 10^−5M
Procedure: as §1

ACHN = ACHN (Renal cancer); 10^−5M
Procedure: as §1

SF-539 = SF-539 (CNS cancer); 10^−5M
Procedure: as §1

SK-OV-3 = SK-OV-3 (Ovarian cancer); 10^−5M
Procedure: as §1

RPMI-8226 = RPMI-8226 (Leukemia); 10^−5M
Procedure: as §1

MCF7 = MCF7 (Breast cancer); 10^−5M
Procedure: as §1

MDA-MB468 = MDA-MB468 (Breast cancer); 10^−5M
Procedure: as §1

HL-60(TB) = HL-60(TB) (Leukemia); 10^−5M
Procedure: as §1

SF-295 = SF-295 (CNS cancer); 10^−5M
Procedure: as §1

UACC-62 = UACC-62 (Melanoma); 10^−5M
Procedure: as §1

SR = SR (Leukemia); 10^−5M
Procedure: as §1

MDA-MB-435 = MDA-MB-435 (Breast cancer); 10^−5M
Procedure: as §1

SK-MEL-5 = SK-MEL-5 (Melanoma); 10^−5M
Procedure: as §1

IGROV1 = IGROV1 (Ovarian cancer); 10^−5M
Procedure: as §1

CAK1-1 = CAK1-1 (Renal cancer); 10^−5M
Procedure: as §1

SNB-75 = SNB-75 (CNS cancer); 10^−5M
Procedure: as §1

SW-620 = SW-620 (Colon cancer); 10^−5M
Procedure: as §1

MALME-3M = MALME-3M (Melanoma); 10^−5M
Procedure: as §1

CCRF-CEM = CCRF-CEM (Leukemia); 10^−5M
Procedure: as §1

U251 = U251 (CNS cancer); 10^−5M
Procedure: as §1

A498 = A498 (Renal cancer); 10^−5M
Procedure: as §1

SK-MEL-28 = SK-MEL-28 (Melanoma); 10^−5M
Procedure: as §1

M14 = M14 (Melanoma); 10^−5M
Procedure: as §1

OVCAR-4 = OVCAR-4 (Ovarian cancer); 10^−5M
Procedure: as §1

RXF393 = RXF393 (Renal cancer); 10^−5M
Procedure: as §1

A549/ATCC = A549/ATCC (Non-small cell lung cancer); 10^−5M; untreated control 100
Procedure: as §1

EKVX = EKVX (Non-small cell lung cancer); 10^−5M
Procedure: as §1

T-47D = T-47D (Breast cancer); 10^−5M
Procedure: as §1

HT29 = HT29 (Colon cancer); 10^−5M
Procedure: as §1

TK-10 = TK-10 (Renal cancer); 10^−5M
Procedure: as §1

UO-31 = UO-31 (Renal cancer); 10^−5M
Procedure: as §1

SK-MEL-2 = SK-MEL-2 (Melanoma); 10^−5M
Procedure: as §1

OVCAR-5 = OVCAR-5 (Ovarian cancer); 10^−5M
Procedure: as §1

SNB-19 = SNB-19 (CNS cancer); 10^−5M
Procedure: as §1

In the case of `O=C1c2ccccc2C(=O)c2c1ccc1nsnc21` [NSC745885, anthra[2,1-c][1,2,5]thiadiazole-6,11-dione], the proliferation percentage (OVCAR-3) was −15.47%, the proliferation percentage (KM12) was 98.60% and the proliferation percentage (MDA-MB-231/ATCC) was −17.33%. The proliferation percentage (ACHN) was −94.31%, the proliferation percentage (SF-539) was −47.11% and the proliferation percentage (SK-OV-3) was 100.70%. The proliferation percentage (RPMI-8226) was −27.97%, the proliferation percentage (MCF7) was −50.74% and the proliferation percentage (MDA-MB468) was −73.17%. The proliferation percentage (HL-60(TB)) was −21.77%, the proliferation percentage (SF-295) was 126.17% and the proliferation percentage (UACC-62) was −82.32%. The proliferation percentage (SR) was 4.96%, the proliferation percentage (MDA-MB-435) was −87.88% and the proliferation percentage (SK-MEL-5) was 8.52%. For the same compound, the proliferation percentage (IGROV1) was −88.34%, the proliferation percentage (CAK1-1) was 1.97% and the proliferation percentage (SNB-75) was 79.03%. For the same compound, the proliferation percentage (SW-620) was 7.30%, the proliferation percentage (MALME-3M) was −71.54% and the proliferation percentage (CCRF-CEM) was −30.81%. For the same compound, the proliferation percentage (U251) was −89.26%, the proliferation percentage (A498) was 130.09% and the proliferation percentage (SK-MEL-28) was 15.47%. The proliferation percentage (M14) was 74.54%, the proliferation percentage (OVCAR-4) was −94.43% and the proliferation percentage (RXF393) was 20.11%. It also gave a proliferation percentage (A549/ATCC) of 104.18%, a proliferation percentage (EKVX) of 103.18% and a proliferation percentage (T-47D) of −45.52%. The proliferation percentage (HT29) was 116.95%, the proliferation percentage (TK-10) was 96.99% and the proliferation percentage (UO-31) was −79.30%. For the same compound, the proliferation percentage (SK-MEL-2) was −73.16%, the proliferation percentage (OVCAR-5) was −20.07% and the proliferation percentage (SNB-19) was 78.98%.
